Patent publication US7348402B2, “Antimicrobial peptide, its analogs and antimicrobial composition comprising them” (priority 2002, dated 2008)
No end group written: not given here.

Key:
Type in all cases: cell-based
[1] = tested on: Cryptococcus neoformans (ATCC 34881); details: ATCC 34881, 12 h
Excerpt: (§1) The microorganisms used in the present invention include Gram-positive bacteria such as Bacillus subtilis (ATCC 62037), Staphylococcus aureus (ATCC 15752) and Streptococcus mutans (ATCC 25175), Gram-negative bacteria such as Escherichia coli (ATCC 27325), Salmonella enteritidis (ATCC 15277) and Pseudomonas putida (ATCC 17426) and fungi such as Candida albicans (ATCC 10231), Saccharomyces cerevisiae (ATCC 44774) and Cryptococcus neoformans (ATCC 34881), obtained from American Type Culture Collection (ATCC).
(§2) The antimicrobial activity of the peptides prepared in Example 1 was determined against microorganisms by 96-well microdilution minimal inhibitory concentration assay. After overnight culturing the bacteria and fungi in trypticase soy broth (TSB) and Saboraud (SAB) at 37° C. and 30° C., respectively, they were inoculated in new media and cultured for 2 hours to exponential growth phase. After diluting the microorganisms to 10^5 per 1 ml, 190 μl was inoculated in each 96-well plate, and 10 μl of serially diluted peptides were added in each well.

[2] = tested on: Saccharomyces cerevisiae (ATCC 44774); details: ATCC 44774, 12 h
Excerpt: as §1, §2

[3] = tested on: Escherichia coli (ATCC 27325); details: ATCC 27325, 12 h
Excerpt: as §1, §2

[4] = tested on: Salmonella enteritidis (ATCC 15277); details: ATCC 15277, 12 h
Excerpt: as §1, §2

[5] = tested on: Bacillus subtilis (ATCC 62037); details: ATCC 62037, 12 h
Excerpt: as §1, §2

[6] = tested on: Streptococcus mutans (ATCC 25175); details: ATCC 25175, 12 h
Excerpt: as §1, §2

[7] = tested on: Candida albicans (ATCC 10231); details: ATCC 10231, 12 h
Excerpt: as §1, §2

[8] = tested on: Staphylococcus aureus (ATCC 15752); details: ATCC 15752, 12 h
Excerpt: as §1, §2

[9] = tested on: Pseudomonas putida (ATCC 17426); details: ATCC 17426, 12 h
Excerpt: as §1, §2

Measured: Minimum Inhibitory Concentration

KLLKKLLKKLLKNWPIGKLLK [compound 55]
2 µg/mL: [2] | [3] | [6]
1 µg/mL: all other assays above

KLLKKLLKKLLKQWPIGKLLK [compound 38]
2 µg/mL: [2] | [3] | [6] | [7]
1 µg/mL: all other assays above

KLLKNWPIGKLLKKLLKKLLK [compound 21]
2 µg/mL: [4] | [6] | [7]
1 µg/mL: all other assays above

KLLKQWPIGKLLKKLLKKLLK [compound 4]
2 µg/mL: [2] | [5]
1 µg/mL: all other assays above

KLLRKLLRKLLRNWPIGKLLR [compound 63]
2 µg/mL: [2] | [4] | [6]
1 µg/mL: all other assays above

KLLRNWPIGKLLRKLLRKLLR [compound 29]
2 µg/mL: [2] | [6]
1 µg/mL: all other assays above

KLVKKLVKKLVKQWPIGKLVK [compound 42]
2 µg/mL: [6]
1 µg/mL: all other assays above

KLVKQWPIGKLVKKLVKKLVK [compound 8]
2 µg/mL: [2] | [6] | [7]
1 µg/mL: all other assays above

KLVRKLVRKLVRNFPVGKLVR [compound 68]
2 µg/mL: [2] | [6]
1 µg/mL: all other assays above

KLVRKLVRKLVRQFPVGKLVR [compound 51]
2 µg/mL: [2] | [4]
1 µg/mL: all other assays above

KLVRKLVRKLVRQWPIGKLVR [compound 50]
2 µg/mL: [2] | [4]
1 µg/mL: all other assays above

KLVRNFPVGKLVRKLVRKLVR [compound 34]
2 µg/mL: [6]
1 µg/mL: all other assays above

KLVRQFPVGKLVRKLVRKLVR [compound 17]
2 µg/mL: [5] | [6]
1 µg/mL: all other assays above

KLVRQWPIGKLVRKLVRKLVR [compound 16]
2 µg/mL: [5] | [6]
1 µg/mL: all other assays above

KLVRQWPIGKLVRKLVRKLVR-NH2 [compound 69]
2 µg/mL: [2] | [4]
1 µg/mL: all other assays above

KVLKKVLKKVLKNWPIGKVLK [compound 57]
2 µg/mL: [2] | [3] | [6]
1 µg/mL: all other assays above

KVLKNWPIGKVLKKVLKKVLK [compound 23]
2 µg/mL: [4] | [6]
1 µg/mL: all other assays above
